Measured values from patent US8367410B2, “Application of electrical stimulation for functional tissue engineering in vitro and in vivo” (Massachusetts Institute of Technology, priority 2003, dated 2013).
Marks after values point to notes of the source that are not given here.

Tests used:
[1] = system: engineered cardiac constructs; assay: Contractile activity of constructs during incubation with palmitoleic acid; format: cell-based, rat
Protocol: (§1) Contractile function. The contractile function of engineered cardiac constructs was evaluated by monitoring contractile activity upon electrical stimulation at ×10 magnification using a microscope (Nikon Diaphot). Each construct was placed in a 100-mm petri dish containing […] Tyrode solution (140 mM NaCl, 5.4 mM KC1, 0.33 mM NaH2PO4, 1.8 mM CaCl2, 1 mM MgCl2, 5 mM HEPES, and 5.5 MM D-glucose; pH 7.4) between two custom-made gold electrodes connected to a cardiac stimulator (Nihon Kohden). The temperature was maintained at 37° C. using a heating tape (VWR) attached to the bottom of the petri dish.
(§2) Constructs cultured in perfused cartridges were compared with constructs cultured in mixed dishes and to neonatal rat ventricles (full thickness slices obtained by bisecting the left ventricle parallel to the base apex line). The effect of palmitoleic acid (PA), a gap junction blocker (4), was investigated by incubating constructs or slices of native ventricles in PA (8.3 mM in Tyrode solution) for 20 min at 37° C. and then determining ET and MCR as described above. To test whether the effect of PA was reversible, constructs were transferred to Tyrode solution and retested after an additional 20 min at 37° C.

[2] = system: engineered cardiac constructs cultured in mixed dishes; assay: Contractile function (ET, MCR) of dish-grown constructs, palmitoleic acid treatment and washout; format: cell-based, rat
Protocol: as §1
(§3) The maximum capture rate (MCR) was defined as the maximum pacing frequency (in beats/min) for a synchronous stimulus response of the constructs. To measure MCR, the stimulation frequency was increased (from 60 to 600 beats/min, in 20 beats/min increments) at a constant voltage (equal to either 150% or 200% of the ET). The construct response was measured at each frequency, and the frequency was increased until the contractions became asynchronous, irregular, or completely ceased. The maximum frequency for synchronous contractions was recorded as the MCR. The value of ET, which was different from one construct to another due to the differences in their structures, served as the baseline voltage for the measurement of MCR.
as §2

[3] = system: engineered cardiac constructs cultured in perfused cartridges; assay: Contractile function (ET, MCR) of perfused constructs, palmitoleic acid treatment and washout; format: cell-based, rat; conditions: mean +/- SE
Protocol: as §1, §3, §2

neonatal rat ventricles = assay: Contractile function (ET, MCR) of neonatal rat ventricle slices, palmitoleic acid treatment and washout; format: cell-based; conditions: mean +/- SE
Protocol: as §1, §3, §2

[4] = dish-grown construct, after washout of PA, mean +/- SE
[5] = perfused construct, after washout of PA

With `CCCCCC/C=C\CCCCCCCC(=O)O` [PA, palmitoleic acid] as the compound, how does the “Contractile activity after the washout of PA” value ([1]; after transfer to Tyrode solution, 20 min at 37° C.) read?
Its value is “Contractile activity resumed”.

And the “Voltage at which synchronous construct contractions could not be induced” value ([1]; upon incubation with PA (8.3 mM in Tyrode solution))?
The value was over 9.9 V.

And the “ET (excitation threshold), After PA” value ([2]; dish-grown construct (7 days at 25 rpm), after washout of PA (8.3 mM, 20 min), 60 beats/min, mean +/- SE)?
The value was 4.4 +/− 0.1^ab V.

And the “MCR at 150% ET, After PA” value [2, 4]?
Its value is 378 +/− 31^c beats/min.

And the “MCR at 200% ET, After PA” value [2, 4]?
Its value is 380 +/− 31^c beats/min.

What about the “Recovery of MCR after PA washout” value ([2]; dish-grown constructs) of the same compound?
The value was “failed to recover their baseline levels”.

And the “ET (excitation threshold), After PA” value ([3]; perfused construct (7 days at 500 μm/s), after washout of PA (8.3 mM, 20 min), 60 beats/min)?
The value was 3.5 +/− 0.1^a V.

And the “MCR at 150% ET, After PA” value [3, 5]?
Its value is 415 +/− 35 beats/min.

What about the “MCR at 200% ET, After PA” value [3, 5] of the same compound?
The value was 435 +/− 45 beats/min.

What about the “ET (excitation threshold), After PA” value (neonatal rat ventricles; after washout of PA (8.3 mM, 20 min, 37° C.), stimulation 60 beats/min) of the same compound?
The value was 1.5 +/− 0.1 V.

And the “MCR at 150% ET, After PA” value (neonatal rat ventricles; after washout of PA)?
The value was 465 +/− 15 beats/min.

What about the “MCR at 200% ET, After PA” value (neonatal rat ventricles; after washout of PA) of the same compound?
Its value is 427 +/− 58 beats/min.
